Our source for the MIC values is US5262417A, “Antibacterial quinolone compounds” (The Upjohn Company, priority 1991, dated 1993).

Values after ≈ are worked out from the molar mass of the structure shown. Like-named read-outs stand apart in the source and are kept apart here.

Holding throughout (assay): Minimum inhibitory concentration (MIC) by agar dilution
Common to all, as to type: cell-based
For orientation: In agar dilution, organisms are placed on agar that contains the substance at set levels.

For one test, the system named is Enterobacter cloacae. To be noted: UC9382, 20 h, E. cloacae UC 9382, Table CI, read-out: Minimum Inhibitory Concentration. The method, then: (§1) Briefly, MIC values are determined in unsupplemented Mueller Hinton Agar (MHA). The compounds tested are diluted serially into molten MHA at 47° C. The agar is poured into petri dishes and allowed to harden. The various bacteria used for testing are grown overnight on MHA at 35° C. and transferred to Trypticase soy broth (TSB) until a turbidity of 0.5 McFarland standard is obtained. The bacteria are diluted one to 20 in TSB and inoculated on the plates (1 μl using a Steers replicator).
as §1, with “Compounds of this invention can also be tested for in vitro antimicrobial activity using standard testing procedures such as the determination of minimum inhibitory concentration (MIC) by agar dilution as described in "Methods for Dilution Antimicrobial Susceptibility Tests for Bacteria That Grow Aerobically" (MFT) published Jan. […] Briefly,” for “Briefly,”, “(1μl” for “(1 μl”

The next test deals with Escherichia coli. To be noted: Escherichia coli, read-out: Minimum Inhibitory Concentration. The method, then: as §1, with “The antibacterial activity of the compounds of Formula IC was determined by using standard testing procedures such as the determination of minimum inhibitory concentration (MIC) by agar dilution as described in "Methods for Dilution Antimicrobial Susceptibility Tests for Bacteria That Grow Aerobically" (MFT) published January 1983 by the National Committee for Clinical Laboratory Standards, 771 East Lancaster Avenue, Villanova, Pa. 19084, USA. Briefly,” for “Briefly,”
(§2) Compounds of this invention can also be tested for in vitro antimicrobial activity using standard testing procedures such as the determination of minimum inhibitory concentration (MIC) by agar dilution as described in "Methods for Dilution Antimicrobial Susceptibility Tests for Bacteria That Grow Aerobically" (MFT) published Jan. 1983 by the National Committee for Clinical Laboratory Standards, 771 East Lancaster Avenue, Villanova, Penna. 19084, USA. Briefly, MIC values are determined in unsupplemented Mueller Hinton Agar (MHA). The compounds tested are diluted serially into molten MHA at 47° C. The agar is poured into petri dishes and allowed to harden. The various bacteria used for testing are grown overnight on MHA at 35° C. and transferred to Trypticase soy broth (TSB) until a turbidity of 0.5 McFarland standard is obtained. The bacteria are diluted one to 20 in TSB and inoculated on the plates (1μl using a Steers replicator). […] The MIC test results of selected of Formula B compounds of this invention are found in Tables B2-B9.

For the next test, the system named is Citerobacter freundii. The settings on record: Citrobacter freundii, UC3507, 20 h; C. freundii UC 3507, Table CI; read-out: Minimum Inhibitory Concentration. The method, then: (§3) The antibacterial activity of the compounds of Formula IC was determined by using standard testing procedures such as the determination of minimum inhibitory concentration (MIC) by agar dilution as described in "Methods for Dilution Antimicrobial Susceptibility Tests for Bacteria That Grow Aerobically" (MFT) published January 1983 by the National Committee for Clinical Laboratory Standards, 771 East Lancaster Avenue, Villanova, Pa. 19084, USA. Briefly, MIC values are determined in unsupplemented Mueller Hinton Agar (MHA). The compounds tested are diluted serially into molten MHA at 47° C. The agar is poured into petri dishes and allowed to harden. The various bacteria used for testing are grown overnight on MHA at 35° C. and transferred to Trypticase soy broth (TSB) until a turbidity of 0.5 McFarland standard is obtained. The bacteria are diluted one to 20 in TSB and inoculated on the plates (1 μl using a Steers replicator).
as §2

Another test has as its system Serratia marcescens. The settings on record: 20 h, S. marcescens, UC number not given, Table CI, read-out: Minimum Inhibitory Concentration. The method, then: as §3, §2
The subject of test [1] is Acinetobacter calcoaceticus. To be noted: Acinetobacter calcoaceticus, UC12170, 20 h; A. calcoaceticus UC 12170, Table CI; read-out: Minimum Inhibitory Concentration. The method, then:
as §3, §2

The next test relates to Pseudomonas aeruginosa. To be noted: Pseudomonas aeruginosa, read-out: Minimum Inhibitory Concentration. The method, then:
as §3, §2

The subject of another test is Streptococcus faecalis. The settings on record: Enterococcus faecalis, UC9217, 20 h; S. faecalis UC 9217, Table CI; read-out: Minimum Inhibitory Concentration. The protocol:
as §3, §2

A further test relates to Streptococcus pneumoniae. The settings on record: Streptococcus pneumoniae, UC41, 20 h; S. pneumoniae UC 41, Table CI; read-out: Minimum Inhibitory Concentration. The method, then:
as §3, §2

The test system of a further test is Streptococcus pyogenes. To be noted: Streptococcus pyogenes, UC152, 20 h; S. pyogenes UC 152, Table CI; read-out: Minimum Inhibitory Concentration. The protocol: as §3, §2
A further test deals with Proteus penneri. The settings on record: Proteus penneri, UC9679, 20 h; P. penneri UC 9679, Table CI; read-out: Minimum Inhibitory Concentration. The method, then:
as §3, §2

In another test the test system is Klebsiella pneumoniae. The settings on record: UC12081, 20 h, K. pneumoniae UC 12081, Table CI, read-out: Minimum Inhibitory Concentration. The protocol:
as §3, §2

The subject of test [2] is Staphylococcus epidermidis. To be noted: 20 h, S. epidermidis 30031, Table CI, read-out: Minimum Inhibitory Concentration. The method, then: as §3, §2
The subject of a further test is Staphylococcus aureus. The settings on record: Staphylococcus aureus, read-out: Minimum Inhibitory Concentration. The method, then:
as §3, §2

Setting [3] is: UC6674, 20 h, E. coli UC 6674, Table CI.
Where [4] appears, read: UC9451, 20 h, E. coli UC 9451, Table CI.
Setting [5] is: UC9855, 20 h, E. coli UC 9855, Table CI.
Setting [6] is: UC9952, 20 h, E. coli UC 9952, Table CI.
The mark [7] stands for this setting: UC6676, 20 h, Ps. aeruginosa UC 6676, Table CI.
The mark [8] stands for this setting: UC9191, 20 h, Ps. aeruginosa UC 9191, Table CI.
Where [9] appears, read: UC12120, 20 h, Ps. aeruginosa UC 12120, Table CI.
Where [10] appears, read: UC6685, 20 h, S. aureus UC 6685, Table CI.
The mark [11] stands for this setting: UC9213, 20 h, S. aureus UC 9213, Table CI.
[12] abbreviates: UC9218, 20 h, S. aureus UC 9218, Table CI.
[13] abbreviates: UC9271, 20 h, S. aureus UC 9271, Table CI.

Consider `C#CC(C)(C)n1cc(C(=O)O)c(=O)c2cc(F)c(N3CCC(N)C3)c(F)c21` (racemic) [B], for which the MIC with Enterobacter cloacae was found to be 0.25 µg/mL (≈ 0.666 µM); in the test with Escherichia coli (setting [3]) it was 0.125 µg/mL (≈ 0.333 µM); in the test on Escherichia coli (setting [4]), 0.125 µg/mL (≈ 0.333 µM); in the test on Escherichia coli (setting [5]), 0.25 µg/mL (≈ 0.666 µM); with Escherichia coli (setting [6]), 0.125 µg/mL (≈ 0.333 µM); in the test with Citerobacter freundii, 0.125 µg/mL (≈ 0.333 µM). For the same compound, the MIC with Serratia marcescens is 1 µg/mL (≈ 2.66 µM); in test [1], 0.5 µg/mL (≈ 1.33 µM); with Pseudomonas aeruginosa (setting [7]), 2 µg/mL (≈ 5.33 µM); in the test on Pseudomonas aeruginosa (setting [8]), 2 µg/mL (≈ 5.33 µM); in the test on Pseudomonas aeruginosa (setting [9]), 1 µg/mL (≈ 2.66 µM); with Streptococcus faecalis, 2 µg/mL (≈ 5.33 µM). In addition, the MIC in the test on Streptococcus pneumoniae came out at 2 µg/mL (≈ 5.33 µM); in the test on Streptococcus pyogenes, 1 µg/mL (≈ 2.66 µM); in the test on Proteus penneri it was 1 µg/mL (≈ 2.66 µM); with Klebsiella pneumoniae, 0.25 µg/mL (≈ 0.666 µM); in test [2] it was 0.25 µg/mL (≈ 0.666 µM); with Staphylococcus aureus (setting [10]), 0.25 µg/mL (≈ 0.666 µM). The MIC in the test on Staphylococcus aureus (setting [11]), with Staphylococcus aureus (setting [12]) and in the test on Staphylococcus aureus (setting [13]) was 0.5 µg/mL (≈ 1.33 µM) throughout.
Regarding `C#CCn1cc(C(=O)O)c(=O)c2cc(F)c(N3CCC(N)C3)c(F)c21` (racemic) [D], the MIC in the test on Enterobacter cloacae stood at 1 µg/mL (≈ 2.88 µM); in the test on Escherichia coli (setting [3]), 1 µg/mL (≈ 2.88 µM); in the test on Escherichia coli (setting [4]) it was 0.5 µg/mL (≈ 1.44 µM); with Escherichia coli (setting [5]), 2 µg/mL (≈ 5.76 µM); in the test with Escherichia coli (setting [6]), 0.5 µg/mL (≈ 1.44 µM); with Citerobacter freundii, 0.5 µg/mL (≈ 1.44 µM). The MIC with Serratia marcescens is 0.06 µg/mL (≈ 0.173 µM); in test [1] it was 4 µg/mL (≈ 11.5 µM); with Pseudomonas aeruginosa (setting [7]), 8 µg/mL (≈ 23 µM); in the test with Pseudomonas aeruginosa (setting [8]), 8 µg/mL (≈ 23 µM); in the test with Pseudomonas aeruginosa (setting [9]), 4 µg/mL (≈ 11.5 µM); with Streptococcus faecalis it was 32 µg/mL (≈ 92.1 µM). In addition, the MIC turned out to be 32 µg/mL (≈ 92.1 µM) with Streptococcus pneumoniae; 16 µg/mL (≈ 46.1 µM) with Streptococcus pyogenes; 0.5 µg/mL (≈ 1.44 µM) in the test on Proteus penneri; 1 µg/mL (≈ 2.88 µM) with Klebsiella pneumoniae; 2 µg/mL (≈ 5.76 µM) in test [2]; 4 µg/mL (≈ 11.5 µM) in the test with Staphylococcus aureus (setting [10]). In addition, the MIC with Staphylococcus aureus (setting [11]), with Staphylococcus aureus (setting [12]) and in the test on Staphylococcus aureus (setting [13]) was 8 µg/mL (≈ 23 µM) throughout.
